{"source": "patent US20080261986A1", "about": "“PHARMACEUTICAL FORMULATIONS FOR IONTOPHORETIC DELIVERY OF AN ANTI-FUNGAL DRUG” (priority 2007, published 2008)", "key": {"[1]": {"test": "Approximate visual solubility in receiver fluids", "assay_type": "physicochemical", "method": "The visual solubility of each receiver fluid shown in Table 3 below was initially tested for ketoconazole (BUFA B.V.) and ciclopirox (PCAS Finland Oy). Additional solubility testing was then conducted for terbinafine hydrochloride (QueMaCo Ltd.), amorolfine hydrochloride (Inter-Chemical Ltd.) and itraconazole EP (Shamrock, UK) and the results are shown in Table 3.\nThe solubility of terbinafine hydrochloride, fluconazole, itraconazole and amorolfine hydrochloride was determined in PBS and 5% Tween 80 and the results are summarized in Table 4."}, "[2]": {"system": "C. albicans", "test": "Permeation across full thickness nail (ChubTur cell), receiver fluid assayed by C. albicans growth absorbance", "assay_type": "cell-based", "conditions": "for Absorbance: replicates 1-3, full thickness human nail, C. albicans, 600 nm; for permeation across full thickness nail: all conditions tested (cathodal, anodal, passive)"}, "[3]": {"assay_type": "in vitro ADME, human", "method": "Prehydrated cadaver finger nails (approximately 0.5-0.7 mm thickness) or bovine hooves (approximately 0.25 mm thickness) were used for comparing different formulations as described in Examples 8-10. […] A nail adaptor was required to accommodate the curvature of the nail, but not for the hoof. The receptor compartments were filled with receiver fluid (3-5 ml water pH 3) and the drug formulations described above (0.5-2 mL) were placed in the donor compartment. […] Receptor levels of drug permeated were analyzed. Aliquots removed were replaced with an equal amount of buffer, and were assayed by HPLC to measure terbinafine HCl permeation through the nail or hoof. Control passive experiments were conducted in the same way except for the application of electric current. Nails or hooves were taken out of the FDC and drug extracted as described in Example 4. The drug loading levels in the nail or hoof were expressed as mg terbinafine HCl per g of nail or hoof. Data were expressed as means ±standard deviations. All experiments were performed in triplicate. […] The four formulations were evaluated for permeation of terbinafine HCl through the nail and loading in the nail as described in Example 8. Formulations containing benzoic acid improved permeation of terbinafine HCl through the nail over the base glycerin formulation without benzoic acid (FIG. 7A)."}, "[4]": {"conditions": "aqueous with cosolvent or surfactant or cyclodextrin, Approximate visual solubility"}}, "note": "“And” between values parts separate entries of the source, which are not always exact repeats. Equal entries are not always repeated. Structures can show the parent of a compound that is named as a salt. Where two headings read alike, the source gives them in different places."}
{"compound": "CCC(C)(C)c1ccc(CC(C)CN2C[C@@H](C)O[C@@H](C)C2)cc1", "note": "(stereo partly shown) [Amorolfine hydrochloride, amorolfine hydrochloride]", "values": [{"measurement": "solubility", "setting": "[1]; [4]", "value": "2050 to 2570", "unit": "µg/mL"}, {"measurement": "Absorbance", "setting": "[2]; Anodal iontophoresis (1000 μA, 1 hr), listed as Amorolifine, hydrochloride", "value": "0.54 and 0.44 and 0.40"}, {"measurement": "Absorbance", "setting": "[2]; Cathodal iontophoresis, controls: no C. albicans 0.037-0.039, no compound 0.126-0.160, listed as Amorolifine, hydrochloride", "value": "0.50 and 0.54 and 0.49"}, {"measurement": "Absorbance", "setting": "[2]; Passive permeation, listed as Amorolifine, hydrochloride", "value": "0.48 and 0.59 and 0.54"}, {"measurement": "permeation across full thickness nail", "setting": "[2]", "value": "did not show permeation of the nail under any conditions tested"}]}
{"compound": "Cc1cc(C2CCCCC2)n(O)c(=O)c1", "note": "[Ciclopirox olamine, ciclopirox olamine]", "values": [{"measurement": "Absorbance", "setting": "[2]; Anodal iontophoresis (1000 μA, 1 hr)", "value": "0.042 and 0.079"}, {"measurement": "Absorbance", "setting": "[2]; Cathodal iontophoresis, controls: no C. albicans 0.037-0.039, no compound 0.126-0.160", "value": 0.048}, {"measurement": "Absorbance", "setting": "[2]; Passive permeation", "value": "0.157 and 0.129"}, {"measurement": "permeation across full thickness nail (detection in receiver fluid)", "setting": "[2]; both cathodal and anodal iontophoresis", "value": "detected in the receiver fluid"}, {"measurement": "permeation across full thickness nail (detection in receiver fluid)", "setting": "[2]; passive delivery", "value": "not with passive delivery"}]}
{"compound": "OC(Cn1cncn1)(Cn1cncn1)c1ccc(F)cc1F", "note": "[Fluconazole, fluconazole]", "values": [{"measurement": "solubility", "setting": "[1]; aqueous with cosolvent or surfactant or cyclodextrin, PBS and 5% Tween 80 (Table 4), read-out: Approximate visual solubility", "value": "1910 to 2170", "unit": "µg/mL"}]}
{"compound": "CCC(C)n1ncn(-c2ccc(N3CCN(c4ccc(OCC5COC(Cn6cncn6)(c6ccc(Cl)cc6Cl)O5)cc4)CC3)cc2)c1=O", "note": "(stereo not shown) [Itraconazole, itraconazole]", "values": [{"measurement": "solubility", "setting": "[1]; [4]", "value": "< 330", "unit": "µg/mL"}]}
{"compound": "Cc1cc(C2CCCCC2)n(O)c(=O)c1", "note": "[ciclopirox]", "values": [{"measurement": "solubility in receiver fluid (in words)", "setting": "[1]", "value": "good solubility"}, {"measurement": "solubility", "setting": "[1]; aqueous buffer, Approximate visual solubility", "value": "< 388", "unit": "µg/mL"}, {"measurement": "Absorbance", "setting": "[2]; Anodal iontophoresis (1000 μA, 1 hr), listed as Ciclopirox", "value": "0.045 and 0.044 and 0.068"}, {"measurement": "Absorbance", "setting": "[2]; Cathodal iontophoresis, controls: no C. albicans 0.037-0.039, no compound 0.126-0.160, listed as Ciclopirox", "value": "0.075 and 0.085 and 0.079"}, {"measurement": "Absorbance", "setting": "[2]; Passive permeation, listed as Ciclopirox", "value": "0.075 and 0.046"}, {"measurement": "permeation across full thickness nail", "setting": "[2]", "value": "appeared to penetrate the nail regardless of whether current was applied"}]}
{"compound": "CC(=O)N1CCN(c2ccc(OCC3COC(Cn4ccnc4)(c4ccc(Cl)cc4Cl)O3)cc2)CC1", "note": "(stereo not shown) [ketoconazole]", "values": [{"measurement": "solubility in receiver fluid (in words)", "setting": "[1]; PBS and 5% Tween 80", "value": "good solubility"}, {"measurement": "solubility", "setting": "[1]; aqueous buffer, 1% Propylene glycol in PBS, read-out: Approximate visual solubility", "value": "< 554", "unit": "µg/mL"}, {"measurement": "solubility", "setting": "[1]; aqueous with cosolvent or surfactant or cyclodextrin, 20 mM B hydroxylpropyl cyclodextrin in PBS, read-out: Approximate visual solubility", "value": "< 1030", "unit": "µg/mL"}, {"measurement": "solubility", "setting": "[1]; aqueous with cosolvent or surfactant or cyclodextrin, 200 mM B hydroxylpropyl cyclodextrin in PBS, read-out: Approximate visual solubility", "value": "2120 to 2370", "unit": "µg/mL"}, {"measurement": "solubility", "setting": "[1]; aqueous with cosolvent or surfactant or cyclodextrin, 0.5% Tween-80 in PBS, read-out: Approximate visual solubility", "value": "< 412", "unit": "µg/mL"}, {"measurement": "solubility", "setting": "[1]; aqueous with cosolvent or surfactant or cyclodextrin, 1% Tween-80 in PBS, read-out: Approximate visual solubility", "value": "< 458", "unit": "µg/mL"}, {"measurement": "solubility", "setting": "[1]; aqueous with cosolvent or surfactant or cyclodextrin, 2% Tween-80 in PBS, read-out: Approximate visual solubility", "value": "< 646", "unit": "µg/mL"}, {"measurement": "solubility", "setting": "[1]; aqueous with cosolvent or surfactant or cyclodextrin, 5% Ethanol in PBS, read-out: Approximate visual solubility", "value": "< 910", "unit": "µg/mL"}, {"measurement": "solubility", "setting": "[1]; aqueous with cosolvent or surfactant or cyclodextrin, 5% Propylene glycol in PBS, read-out: Approximate visual solubility", "value": "< 472", "unit": "µg/mL"}, {"measurement": "solubility", "setting": "[1]; aqueous with cosolvent or surfactant or cyclodextrin, 5% Tween-80 in PBS, read-out: Approximate visual solubility", "value": "1280 to 1530", "unit": "µg/mL"}, {"measurement": "solubility", "setting": "[1]; aqueous with cosolvent or surfactant or cyclodextrin, 10% Ethanol in PBS, read-out: Approximate visual solubility", "value": "< 438", "unit": "µg/mL"}, {"measurement": "solubility", "setting": "[1]; aqueous with cosolvent or surfactant or cyclodextrin, 20% Ethanol in PBS, read-out: Approximate visual solubility", "value": "< 398", "unit": "µg/mL"}]}
{"compound": "PEG 400", "values": [{"measurement": "permeation of terbinafine HCl through the nail (in words)", "setting": "[3]", "value": "further improved the permeation of terbinafine HCl through the nail"}]}
